Test results: US10245249B2, “Pharmaceutical compositions comprising nitroxyl donors” (Cardioxyl Pharmaceuticals, Inc., priority 2013, dated 2019)

Legend:
beagle dogs = test: Canine peripheral vein toxicity model, 24 hour infusion (clinical pathology markers of inflammation: WBC, fibrinogen, CRP); format: in vivo; conditions: for NOAEL (μg/kg/min) (actual): based on clinical pathology markers (WBC, fibrinogen, CRP), 24 hour infusion, CAPTISOL 7% w/v, pH 4
Procedure: Key inflammatory markers measured include white blood cells (WBC), fibrinogen, and C-reactive protein (CRP).
After 24 hours of infusion, clinical pathology changes similar to those observed in previous studies using an implanted central catheter were detected.
Studies were conducted in male and female beagle dogs. Animals were allowed free access to drinking water and a commercial canine diet under standard laboratory conditions. Animals were fasted prior to blood sample collections when indicated by the study protocol. Fluorescent lighting was provided via an automatic timer for approximately 12 hours per day. On occasion, the dark cycle was interrupted intermittently due to study-related activities. Temperature and humidity were monitored and recorded daily and maintained to the maximum extent possible between 64° F. to 84° F. and 30% to 70%, respectively. The dogs were acclimated for a period of at least 1 week. During this period, the animals were weighed weekly and observed with respect to general health and any signs of disease. The animals were acclimated to wearing a jacket for at least three days prior to dose administration. Additionally, the animals were also acclimated to wearing an Elizabethan collar (e-collar) during the jacket acclimation.
Animals were catheterized the day prior to dose administration. A percutaneous catheter was placed (using aseptic technique and sterile bandaging) in the cephalic vein distal to the elbow. The animals were free-moving in their cages during continuous infusion dose administration. To facilitate continuous infusion dose administration, the peripheral catheter was attached to an extension set routed underneath a canine jacket and then attached to a tether infusion system. To prevent the animals from accessing/removing the peripherally placed percutaneous catheter, the catheterization site was bandaged using Vet Wrap and an e-collar was placed on the animals for the duration of the treatment (i.e., the catheterized period). During the pretreatment period, the venous catheter was infused continuously at a rate of approximately 2-4 mL/hr with 0.9% sodium chloride for injection, USP (saline) to maintain catheter patency. Prior to dosing, the infusion system was pre-filled (slow bolus infusion) with the respective dosing solution to ensure that dosing began as soon as the infusion pump was started. The infusion line was connected to a reservoir containing the control or test compound and the infusion was started. Test compositions were infused continuously, at a predetermined constant infusion rate (1 or 2 mL/kg/hr), for 24 hours and were compared at molar equivalent dose rates.
A detailed clinical examination of each animal was performed twice daily and body temperature measurements and blood samples for clinical pathology were collected from all animals pre-dose and 6 hours, 12 hours, 24 hours and 72 hours post start of composition infusion. At the termination of the study, all animals were euthanized at their scheduled necropsy and complete necropsy examinations were performed. Selected tissues were collected, fixed and stored for potential future microscopic examination. The cephalic vein containing the infusion catheter was dissected intact along with the brachial vein and examined along its entire length. The location of the catheter tip was marked on the unfixed specimen. After fixation, the specimen was trimmed and processed to slide to provide transverse histologic sections representing the catheter tip and surrounding tissues both proximal and distal to the catheter tip (i.e., 1 cm distal to the catheter tip, at the catheter tip, and 1, 5, 10, 15, and 20 cm proximal to the catheter tip). Relative to the catheter tip, “proximal” was defined as closer to the heart and “distal” was defined as further from the heart.
Each compound was formulated with CAPTISOL® (7% w/v) in sterile water at a pH of 4. […]

[1] = In vitro stability (half-life) in human plasma; format: in vitro ADME; conditions: human plasma pH 7.4 with anticoagulant, 37° C.; for T1/2 (minutes) Human: 5 μM; for half-life at 5 μM: male, read-out: T1/2 (minutes) Human
Procedure: (§1) Certain compounds from Tables 1 and 2 and CXL-1020 were tested for their stability in phosphate buffered saline (PBS) and plasma. The assay system comprised (i) PBS, or plasma from rat, dog or human (at least 3 donors, male, pooled) at pH 7.4, and (ii) for tests conducted in plasma, an anticoagulant (sodium heparin or sodium citrate). Each test compound (5 μM) was incubated in PBS or plasma at 37° C. on a THERMOMIXER® with shaking. Three samples (n=3) were taken at each of seven sampling time points: 0, 10, 30, 60, 90, 180 and 360 minutes. The samples were immediately combined with 3 volumes (i.e., 3 times the volume of PBS or plasma) of acetonitrile containing 1% formic acid and an internal standard to terminate the reaction. AB SCIEX API 3000 LC-MS/MS analysis of the test compounds was performed without a standard curve. Half-lives (T1/2) of the test compounds were determined from graphs of the percent remaining values using the peak area response ratio. For compounds tested multiple times, the value provided in the Table represents an average of the replicate assays.

[2] = In vitro stability (half-life) in dog plasma; format: in vitro ADME; conditions: male, dog, plasma, pH 7.4, 5 μM, dog plasma pH 7.4 with anticoagulant, 37° C.; read-out: T1/2 (minutes) Dog
Procedure: as §1

[3] = In vitro stability (half-life) in phosphate buffered saline (PBS) pH 7.4; format: physicochemical; conditions: pH 7.4, 5 μM, PBS pH 7.4, 37° C., read-out: T1/2 (minutes) PBS
In short: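 Compounds at 5 μM were incubated at 37° C in PBS or in rat, dog or pooled human plasma (heparin or citrate) at pH 7.4. Triplicates were sampled from 0 to 360 minutes and quenched in acetonitrile/formic acid. LC-MS/MS percent remaining gave T1/2, averaged over replicate runs.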

Cc1ccc(S(=O)(=O)NO)o1 [Compound 1, N-Hydroxy-5-methylfuran-2-sulfonamide]
improvement relative to CXL-1020 (beagle dogs; NOAEL, clinical pathology markers): greater than 660 fold
NOAEL (μg/kg/min) (actual) (beagle dogs): >20 µg/kg/min
NOAEL compared with CXL-1020 (beagle dogs; clinical pathology markers): significantly higher than that of CXL-1020
T1/2 (minutes) Human [1]: 65 min

CS(=O)(=O)c1cccc(S(=O)(=O)NO)c1 [Compound 2, N-Hydroxy-3-methanesulfonylbenzene-1-sulfonamide]
NOAEL (μg/kg/min) (actual) (beagle dogs): 3 µg/kg/min
NOAEL compared with CXL-1020 (beagle dogs; clinical pathology markers): significantly higher than that of CXL-1020
T1/2 (minutes) Human [1]: 37 min

O=S(=O)(NO)c1ccco1 [Compound 83, N-Hydroxyfuran-2-sulfonamide]
NOAEL (μg/kg/min) (actual) (beagle dogs): 3 µg/kg/min
NOAEL compared with CXL-1020 (beagle dogs; clinical pathology markers): significantly higher than that of CXL-1020
half-life at 5 μM [2]: 38 min
half-life at 5 μM [3]: 37 min
half-life at 5 μM [1]: 16 min

Cc1ccc(S(=O)(=O)NO)s1 [Compound 84, N-Hydroxy-5-methylthiophene-2-sulfonamide]
NOAEL (μg/kg/min) (actual) (beagle dogs): 10 µg/kg/min
NOAEL compared with CXL-1020 (beagle dogs; clinical pathology markers): significantly higher than that of CXL-1020
half-life at 5 μM [2]: 55 min
half-life at 5 μM [3]: 125 min
half-life at 5 μM [1]: 60 min

CS(=O)(=O)c1ccccc1S(=O)(=O)NO [CXL-1020, N-hydroxy-2-methanesulfonylbenzene-1-sulfonamide, reference compound]
finding in upper forelimb downstream from catheter tip (beagle dogs; after 6 hours of infusion, percutaneous catheter in cephalic vein, dogs): significant edema
microscopic pathology at the catheter tip (beagle dogs; after 24 hours of infusion, percutaneous catheter in cephalic vein, dogs): severe thrombophlebitis
NOAEL (μg/kg/min) (actual) (beagle dogs): <0.03 µg/kg/min

Cn1ccc(S(=O)(=O)NO)n1 [Compound 85, N-Hydroxy-1-methyl-1H-pyrazole-3-sulfonamide]
NOAEL (μg/kg/min) (actual) (beagle dogs): 3 µg/kg/min
NOAEL compared with CXL-1020 (beagle dogs; clinical pathology markers): significantly higher than that of CXL-1020
half-life at 5 μM [2]: 72 min
half-life at 5 μM [3]: 59 min
